According to patent publication US20100015249A1, “Antitumor agent containing 6'-amidino-2'-naphthyl 4-guanidinobenzoate or salt thereof” (priority 2005, published 2010):

Experiments:
Murine fiber cells = experiment: Effect on survival rate of normal cells; format: cell-based; details: concentrations under which apoptosis was induced in cells
Text: Therefore, the present inventors next examined the effect of FUT treatment on normal cells. Murine fiber cells were used as normal cells.

[1] = system: human pancreas cancer cell line MDAPanc-28; experiment: Apoptosis ratio by flow cytometry (propidium iodide, FACScan); format: cell-based; details: for apoptosis induction in combination with gemcitabine: MDAPanc-28, pretreatment with the agent 3 hours then gemcitabine 48 hours, compared with gemcitabine alone
Procedure: The present inventors next examined the effect of these agents on apoptosis induction in the human pancreas cancer cell line MDAPanc-28. […] Flow cytometry was used to confirm the occurrence of apoptosis. Cells were collected after treatments with the agents and fixed in 70% ethanol at −20° C. for 24 hours. After rinsing with PBS, cells were suspended in PBS containing 50 μg/ml of propium iodide, 0.1% Triton X-100, 0.1% sodium citrate and 1 μg/ml of DNase free RNase. The samples were incubated at room temperature for 30 minutes and the amount of DNA was measured by using FACScan.

NF-κB = experiment: Gel shift assay of gemcitabine-induced NF-κB activation; format: cell-based, human; details: MDAPanc-28, pretreatment 3 hours then gemcitabine 3 hours
Procedure: At the same time, the present inventors also made a comparison with the other NF-κB inhibitors PS1145 and PS341. […] Subsequently, a gel shift assay was performed to examine the effect on NF-κB activation.

[2] = system: human pancreas cancer cell line MDAPanc-28; experiment: MTT assay of cell survival rate / living cell ratio; format: cell-based; details: MDAPanc-28, single agent, MTT
Procedure: The present inventors examined the concomitant effect of FUT and TNF-α on apoptosis in cancer cells. After treatment with TNF-α for 24 hours, the human pancreas cancer cell line MDAPanc-28 was further cultured for 24 hours with various concentrations of FUT being added. Cells prepared were then subjected to an MTT assay according to the method generally known to calculate the cell survival rates. Also, DNA was extracted to perform a DNA fragmentation assay.
More specifically, with regard to the MTT assay, each well was seeded with 2000 cells per 100 μl of culture medium in a 96-well microtiterplate, followed by the above mentioned treatment. After plate centrifugation, each well received 5 mg/ml of MTT (Sigma) PBS solution instead of culture medium and was incubated for 4 hours at 37° C. After removing the supernatant, 100 μl of DMSO were added to dissolve the cells. The absorbance of the samples was measured at 570 nm by using a microplate reader. 8 wells were subjected to the same condition in this experiment. Two independent experiments were performed, and the average was calculated.
However, the agents are of different types with different mechanisms of action. Therefore, the present inventors examined the effect of each agent on the living cell ratio in the human pancreas cancer cell line MDAPanc-28 singularly. After being treated with each agent for 24 hours and 48 hours, the human pancreas cancer cell line MDAPanc-28 was subjected to a MTT assay. The MTT assay was performed by the method described in Example 9.

[3] = system: human pancreas cancer cell line Panc-1; experiment: Subcutaneous Panc-1 transplant in nude mice: tumor volume and weight; format: in vivo; details: Panc-1 s.c., 6 weeks treatment, gemcitabine 100 mg/kg once a week i.p., FUT-175 30 mg/kg three times a week i.p.
Procedure: (§1) Tumor volume, the body weight and extirpated tumor weight were measured and pictures were taken for each group of mice.

[4] = Body weight of Panc-1 transplanted nude mice after treatment; format: in vivo; details: Panc-1 s.c., 6 weeks treatment, gemcitabine 100 mg/kg once a week i.p., FUT-175 30 mg/kg three times a week i.p.
Procedure: as §1

[5] = system: human pancreas cancer cell line MDAPanc-28; experiment: DNA fragmentation assay (apoptosis); format: cell-based; details: MDAPanc-28, TNF-α 5 ng/ml 24 hours, then with or without FUT 24 hours
Procedure: After adding 1000 U/ml of protease K, the sample was further incubated for 5 hours at 50° C. After extracting DNA with phenol/chloroform/isoamyl alcohol, isopropanol and ammonium acetate were added to the collected water-soluble fractions in order to collect precipitates. The precipitates were then rinsed with 70% ethanol and dissolved in Tris-EDTA buffer. Electrophoresis was performed on a 2% agarose gel and DNA bands were confirmed by using ethidium bromide. The present inventors examined the concomitant effect of FUT and TNF-α on apoptosis in cancer cells. After treatment with TNF-α for 24 hours, the human pancreas cancer cell line […]-28 was further cultured for 24 hours with various concentrations of FUT being added. Cells prepared were then subjected to an MTT assay according to the method generally known to calculate the cell survival rates. Also, DNA was extracted to perform a DNA fragmentation assay. More specifically, with regard to the MTT assay, each well was seeded with 2000 cells per 100 μl of culture medium in a 96-well microtiterplate, followed by the above mentioned treatment. […] The absorbance of the samples was measured at 570 nm by using a microplate reader. […] Two independent experiments were performed, and the average was calculated. […]

Molecule | survival rate of normal cells (Murine fiber cells) | apoptosis induction in combination with gemcitabine [1] | effect on gemcitabine-induced activation of NF-κB (NF-κB) | inhibitory effect on proliferation, 24-hour treatment [2] | inhibitory effect on proliferation, 48-hour treatment [2] | Extirpated tumor weight, level of the control [3] | Tumor volume, level of the control [3] | body weight of mice after administration [4] | apoptosis induction, single agent ([1]; MDAPanc-28, gemcitabine alone for 48 hours) | DNA fragmentation [5]
CC(C)C[C@H](NC(=O)[C@H](Cc1ccccc1)NC(=O)c1cnccn1)B(O)O [PS341] | significantly decreased the survival rate of normal cells | further enhanced the effect on apoptosis induction | showed a similar trend | no significant inhibitory effect on proliferation | no significant inhibitory effect on proliferation |  |  |  |  | 
O=C(Nc1cc(Cl)cc2c1[nH]c1cnccc12)c1cccnc1 [PS1145] | significantly decreased the survival rate of normal cells | further enhanced the effect on apoptosis induction | showed a similar trend | did not show any significant inhibitory effect | concentration-dependent inhibitory effect on proliferation |  |  |  |  | 
Nc1ccn([C@@H]2O[C@H](CO)[C@@H](O)C2(F)F)c(=O)n1 [gemcitabine] |  |  |  |  |  | approximately 50% | approximately 50% | showed weight reduction | induced apoptosis | 
TNF-α |  |  |  |  |  |  |  |  |  | showed no DNA fragmentation
